Data on four compounds can be found in patent US20250049831A1, “ANTIVIRAL USE OF BISE[…], AND BISEPOXYLIGNAN COMPOSITION AND PREPARATION OF BISE[…]” (priority 2021, published 2025).

For the test, the system named is COVID-19 virus. Kind of test: In-vitro antiviral CPE test in Vero E6 cells, COVID-19 virus. The test is classed as cell-based.
With `COc1cc(O)cc(C2OCC3C(c4ccc(OC5OC(CO)C(O)C(O)C5O)c(OC)c4)OCC23)c1` (stereo not shown) [compound 1], the “COVID-19 virus SI” value amounted to 31.61. For the compound `COc1ccc([C@H]2OC[C@H]3[C@@H]2CO[C@H]3c2ccc(O[C@@H]3O[C@H](CO)[C@@H](O)[C@H](O)[C@H]3O)c(OC)c2)cc1OC` [compound 2], the “COVID-19 virus SI” value is listed as 30.50. For the compound `COc1ccc(C2OCC3C(c4ccc(OC)c(OC)c4)OCC23)cc1O` (stereo not shown) [compound 3], the “COVID-19 virus SI” value was found to be 5.33.

Regarding `COc1ccc(C2OCC3C(c4ccc(OC(=O)C(C)c5ccc(CC(C)C)cc5)c(OC)c4)OCC23)cc1OC` (stereo not shown) [compound 6], the “COVID-19 virus SI” value is recorded as 4.72.
